Target: CYP3A4.1 (WT) (Homo sapiens, UniProt P08684)
Settings: Figure 2, CYP3A4.1, TST 10–500 μM, n=5

Chain of CYP3A4.1 (WT) (P08684 2-503): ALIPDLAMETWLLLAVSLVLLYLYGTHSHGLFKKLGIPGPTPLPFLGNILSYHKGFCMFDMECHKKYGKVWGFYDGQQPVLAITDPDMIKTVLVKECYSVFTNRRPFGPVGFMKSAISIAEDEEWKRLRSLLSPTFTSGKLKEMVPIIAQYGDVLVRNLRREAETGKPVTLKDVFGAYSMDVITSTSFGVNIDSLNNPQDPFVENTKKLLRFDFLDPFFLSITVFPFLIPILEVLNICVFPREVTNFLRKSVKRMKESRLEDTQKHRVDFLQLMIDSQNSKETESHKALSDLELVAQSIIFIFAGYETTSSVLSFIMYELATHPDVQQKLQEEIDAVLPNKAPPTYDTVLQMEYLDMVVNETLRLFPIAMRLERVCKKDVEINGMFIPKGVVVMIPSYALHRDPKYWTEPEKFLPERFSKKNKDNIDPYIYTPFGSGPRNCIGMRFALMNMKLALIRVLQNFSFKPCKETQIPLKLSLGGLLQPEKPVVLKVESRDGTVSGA

OC(Cn1cncn1)(Cn1cncn1)c1ccc(F)cc1F [FCZ, fluconazole]
Inhibition of CYP3A4 activity (TST metabolism): inhibited CYP3A4 activity in a concentration-dependent manner
